For 23 compounds, IC50 results are on record in patent US20250134869A1, “Pyrrolo[2,3-d]pyrimidinyl, Pyrrolo[2,3-b]pyrazinyl and Pyrrolo[2,3-d]pyridinyl Acryla-mides” (Pfizer Inc, priority 2021, published 2025).

Like-named read-outs stand apart in the source and are kept apart here.

The test system of experiment [1] is IL-15 induced STAT5 phosphorylation in human whole blood lymphocytes. Put plainly: HWB IL-15 induced STAT5 phosphorylation assay. As to conditions: Lymphocyte, IL-15 stimulated, read-out: HWB-IL15-pSTAT5 IC50. Type of experiment: cell-based. The procedure: HWB IL-15 Induced STAT5 Phosphorylation Assay
After mixing and incubating for 45 minutes at 37° C., 5 μl D-PBS (unstimulated control) or 20× stocks of 5 μl human IL-15 (final concentration is 50 ng/ml) were added, and mixed three times. After incubating 15 minutes at 37° C., 1× Lyse/Fix Buffer (BD Phosflow 5× Lyse/Fix Buffer) was added to all wells at 1000 μl/well, then incubated for 20 minutes at 37° C. and spun 5 mins at 1200 rpm. […] Following incubating at 4° C. over night, all the samples were transferred to 96-well polypropylene U-bottom plate, and checked by flow cytometry gated on total lymphocytes.

For experiment [2], the system named is IL-15 induced P-STAT5 in human PBMC. Put plainly: PBMC IL-15 induced P-STAT5. As to conditions: human PBMC, IL-15 stimulated, read-out: PBMC IL15-pSTAT5 IC50. The experiment is classed as cell-based. The protocol: PBMC IL-15 Induced P-STAT5
Frozen human PBMC (200-250 million cells/vial) was thawed at 37° C. The cells were transferred to 10 mL warm medium in a 50-mL conical tube, and centrifuged at 1,200 RPM at room temperature for 5 min. The supernatant was aspirated. […] After adding 47 ml D-PBS (37° C.) to PBMC/FBS suspension, centrifuging at 1,200 RPM at room temperature for 5 min, and aspirating the supernatant, the cells were resuspended in 20 mL warm RPMI medium. Ninety μL of cell suspension were pipetted per well in a 96-well, deep-well, V-bottom plate, and the plate was incubated at 37° C. for 30 min. […] After adding 0.8 mL staining buffer per well, the plates were centrifuged at 1,200 RPM (Beckman GS-6R or Sorvall Legend) at room temperature for 5 min, and again the supernatant was aspirated using a 8-channel or 12-channel manifold. The plate was vortexed, and 0.35 mL 90% methanol/10% H2O (−20° C.) was added per well, and the plate incubated on ice for 20 min. After again adding 0.8 mL staining buffer per well, the plates were centrifuged at 1,200 RPM (Beckman GS-6R or Sorvall Legend) at room temperature for 5 min, and again the supernatant was aspirated using a 8-channel or 12-channel manifold, and then 0.8 mL Staining buffer was added per well. After once again adding 0.8 mL staining buffer per well, the plates were centrifuged at 1,200 RPM (Beckman GS-6R or Sorvall Legend) at room temperature for 5 min, and again the supernatant was aspirated using a 8-channel or 12-channel manifold. […] Samples of 250 μL/well were transferred to a 96-well U-bottom plate, and the FACS analysis was performed gating on total lymphocytes. Samples were analyzed using a BD Calibur™ or BD FACSCanto™ flow cytometer equipped with the BD High Throughput Sampler.

Experiment [3] addresses JAK3 enzyme (Homo sapiens (Human), UniProt P52333). Nature of the experiment: JAK Caliper Enzyme Assay at 4 μM or 1 mM ATP. Type of experiment: biochemical.
Setting [4] is: read-out: JAK3 (4 μM ATP) IC50, 4 μM ATP.
Where [5] appears, read: read-out: JAK3 (1 mM ATP) IC50, 1 mM ATP.

Sequence of JAK3 enzyme (P52333 whole entry, species assumed): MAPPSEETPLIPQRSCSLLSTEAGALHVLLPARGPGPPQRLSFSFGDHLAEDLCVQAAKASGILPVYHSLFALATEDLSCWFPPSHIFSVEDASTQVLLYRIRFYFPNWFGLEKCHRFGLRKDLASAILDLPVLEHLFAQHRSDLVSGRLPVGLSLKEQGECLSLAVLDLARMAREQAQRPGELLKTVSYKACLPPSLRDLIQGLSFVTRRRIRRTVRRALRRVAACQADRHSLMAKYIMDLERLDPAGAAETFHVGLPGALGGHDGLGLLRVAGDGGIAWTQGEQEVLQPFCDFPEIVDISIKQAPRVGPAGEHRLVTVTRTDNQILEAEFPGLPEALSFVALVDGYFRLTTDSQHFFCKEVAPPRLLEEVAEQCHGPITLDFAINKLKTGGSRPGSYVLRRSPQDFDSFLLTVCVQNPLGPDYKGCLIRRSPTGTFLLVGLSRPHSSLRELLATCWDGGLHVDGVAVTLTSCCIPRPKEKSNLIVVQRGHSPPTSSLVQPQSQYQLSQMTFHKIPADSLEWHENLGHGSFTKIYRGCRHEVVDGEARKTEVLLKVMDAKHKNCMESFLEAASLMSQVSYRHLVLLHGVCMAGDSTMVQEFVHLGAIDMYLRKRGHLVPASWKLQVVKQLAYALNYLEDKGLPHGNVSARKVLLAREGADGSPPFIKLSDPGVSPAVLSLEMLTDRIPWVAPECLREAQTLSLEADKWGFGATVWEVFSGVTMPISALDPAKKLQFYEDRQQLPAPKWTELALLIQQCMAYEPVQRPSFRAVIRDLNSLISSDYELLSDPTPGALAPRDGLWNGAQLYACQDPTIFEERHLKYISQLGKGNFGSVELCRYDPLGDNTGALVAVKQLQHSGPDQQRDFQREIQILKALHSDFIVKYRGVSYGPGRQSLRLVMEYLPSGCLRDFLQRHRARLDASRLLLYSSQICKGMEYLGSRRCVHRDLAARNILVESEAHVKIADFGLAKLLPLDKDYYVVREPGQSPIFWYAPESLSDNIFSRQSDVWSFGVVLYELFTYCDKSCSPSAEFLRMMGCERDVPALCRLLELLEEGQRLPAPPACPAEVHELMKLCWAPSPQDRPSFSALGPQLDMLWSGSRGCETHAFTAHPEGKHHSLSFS

In the case of `C=CC(=O)N1C[C@H](C)C[C@@H](Nc2ncnc3[nH]ccc23)C1` (racemic) [Example 65, Rac-1-((3R,5R)-3-((7H-Pyrrolo[2,3-d]pyrimidin-4-yl)amino)-5-methylpiperidin-1-yl)prop-2-en-1-one], in experiment [1], the IC50 was over 10 µM.

In the case of `C=CC(=O)N1CCC[C@@H](Nc2ccnc3[nH]cc(C)c23)C1` [Example 47, 1-{(3R)-3-[(3-methyl-1H-pyrrolo[2,3-b]pyridin-4-yl)amino]piperidin-1-yl}prop-2-en-1-one], the results for the IC50 in experiment [2], in experiment [3] (setting [4]) and in experiment [3] (setting [5]) were 1.08 µM, 0.004 µM and 0.608 µM, respectively.

On to `C=CC(=O)N1CC[C@]2(C)CCN(c3ncnc4[nH]ccc34)[C@@H]2C1` [Example 59, 1-((3aS,7aS)-3a-Methyl-1-(7H-pyrrolo[2,3-d]pyrimidin-4-yl)hexahydro-1H-pyrrolo[2,3-c]pyridin-6 (2H)-yl)prop-2-en-1-one], for which the IC50 is over 2.55 µM in experiment [2] (Homo sapiens, PBMC); 0.0032 µM in experiment [3] (setting [4]); 0.403 µM in experiment [3] (setting [5]).

In the case of `C=CC(=O)N1C[C@H](OC)C[C@@H](N(C)c2ncnc3[nH]ccc23)C1` [Example 78, 1-{(3R,5R)-3-Methoxy-5-[methyl(7H-pyrrolo[2,3-d]pyrimidin-4-yl)amino]piperidin-1-yl}prop-2-en-1-one], the IC50 is over 10 µM in experiment [2], 0.387 µM in experiment [3] (setting [4]) and over 10 µM in experiment [3] (setting [5]).

`CN(C)C/C=C/C(=O)N1CC[C@@H]2CCN(c3ncnc4[nH]ccc34)[C@@H]2C1` [Example 82, (2E)-4-(dimethylamino)-1-[(3aS,7aS)-1-(7H-pyrrolo[2,3-d]pyrimidin-4-yl)octahydro-6H-pyrrolo[2,3-c]pyrdin-6-yl]but-2-en-1-one]: the IC50 in experiment [2] is over 7.3 µM; in experiment [3] (setting [4]) it was 0.0572 µM; in experiment [3] (setting [5]), 5.29 µM.

As for `C=CC(=O)N1CC[C@@H]2CCN(c3ncnc4[nH]cc(CCOC)c34)[C@@H]2C1` [Example 89, 1-{(3aS,7aS)-1-[5-(2-Methoxyethyl)-7H-pyrrolo[2,3-d]pyrimidin-4-yl]octahydro-6H-pyrrolo[2,3-c]pyridin-6-yl}prop-2-en-1-one], the IC50 is over 6.16 µM in experiment [2], 0.0352 µM in experiment [3] (setting [4]) and 3.94 µM in experiment [3] (setting [5]).

Take `C=C(CO)C(=O)N1CCC[C@@H](Nc2ncnc3[nH]ccc23)C1` [Example 93, 2-(hydroxymethyl)-1-[(3R)-3-(7H-pyrrolo[2,3-d]pyrimidin-4-ylamino)piperidin-1-yl]prop-2-en-1-one]: the IC50 in experiment [2] was over 10 µM; in experiment [3] (setting [4]) it was 0.703 µM; in experiment [3] (setting [5]) it was over 10 µM.

For the compound `C=C(COC)C(=O)N1CCC[C@@H](Nc2ncnc3[nH]ccc23)C1` [Example 94, 2-(methoxymethyl)-1-[(3R)-3-(7H-pyrrolo[2,3-d]pyrimidin-4-ylamino)piperidin-1-yl]prop-2-en-1-one], the IC50 in experiment [2] is over 10 µM; in experiment [3] (setting [4]), 0.801 µM; in experiment [3] (setting [5]), over 10 µM.

On to `C=CC(=O)c1c[nH]c2ncnc(N[C@H]3CN(C(=O)C=C)CC[C@H]3F)c12` [Example 120, 1-(4-{[(3S,4R)-1-Acryloyl-4-fluoropiperidin-3-yl]amino}-7H-pyrrolo[2,3-d]pyrimidin-5-yl)prop-2-en-1-one], for which the values for the IC50 in experiment [2], in experiment [3] (setting [4]) and in experiment [3] (setting [5]) were over 10 µM, 0.692 µM and over 0.01 µM, respectively.

In the case of `C=CC(=O)N[C@H]1C[C@@H](Nc2cnc3[nH]cc(C(=O)NC(C)C)c3n2)C1` [Example 184, 2-{[cis-3-(acryloylamino)cyclobutyl]amino}-N-(propan-2-yl)-5H-pyrrolo[2,3-b]pyrazine-7-carboxamide], the IC50 in experiment [1] was over 10 µM; in experiment [3] (setting [4]), 0.0015 µM; in experiment [3] (setting [5]), 0.21 µM.

On to `C=CC(=O)N1C[C@@H]2C(Nc3cnc4[nH]cc(C(=O)NC(C)C)c4n3)[C@@H]2C1` (stereo partly drawn) [Example 189, 2-{[(1R,5S,6s)-3-acryloyl-3-azabicyclo[3.1.0]hex-6-yl]amino}-N-(propan-2-yl)-5H-pyrrolo[2,3-b]pyrazine-7-carboxamide], for which the IC50 was over 10 µM in experiment [1], 0.0011 µM in experiment [3] (setting [4]) and 0.198 µM in experiment [3] (setting [5]).

Turning to `C=CC(=O)N1CCC(Nc2cnc3[nH]cc(-c4ccc(C)nc4)c3n2)CC1` [Example 199, 1-(4-{[7-(6-methylpyridin-3-yl)-5H-pyrrolo[2,3-b]pyrazin-2-yl]amino}piperidin-1-yl)prop-2-en-1-one], the IC50 in experiment [1] was over 10 µM; in experiment [3] (setting [4]), 0.0012 µM; in experiment [3] (setting [5]), 0.101 µM.

In the case of `C=CC(=O)N1CCC(Nc2cnc3[nH]cc(-c4cncc(C#N)c4)c3n2)CC1` [Example 206, 5-{2-[(1-acryloylpiperidin-4-yl)amino]-5H-pyrrolo[2,3-b]pyrazin-7-yl}pyridine-3-carbonitrile], the values for the IC50 in experiment [1], in experiment [3] (setting [4]) and in experiment [3] (setting [5]) were over 10 µM, 0.0001 µM and 0.0196 µM, respectively.

In the case of `C=CC(=O)N1CCC(Oc2cnc3[nH]cc(-c4cncc(F)c4)c3n2)CC1` [Example 213, 1-(4-{[7-(5-fluoropyridin-3-yl)-5H-pyrrolo[2,3-b]pyrazin-2-yl]oxy}piperidin-1-yl)prop-2-en-1-one], the values for the IC50 in experiment [1], in experiment [3] (setting [4]) and in experiment [3] (setting [5]) were over 10 µM, 0.0008 µM and 0.0694 µM, respectively.

Regarding `C=CC(=O)N1CCC(Oc2cnc3[nH]cc(-c4cccnc4F)c3n2)CC1` [Example 217, 1-(4-{[7-(2-fluoropyridin-3-yl)-5H-pyrrolo[2,3-b]pyrazin-2-yl]oxy}piperidin-1-yl)prop-2-en-1-one], the IC50 in experiment [1] is over 10 µM; in experiment [3] (setting [4]) it was 0.0007 µM; in experiment [3] (setting [5]), 0.0424 µM.

Take `C=CC(=O)N1CCC(Oc2cnc3[nH]cc(-c4ccnc(C)c4)c3n2)CC1` [Example 220, 1-(4-{[7-(2-methylpyridin-4-yl)-5H-pyrrolo[2,3-b]pyrazin-2-yl]oxy}piperidin-1-yl)prop-2-en-1-one]: the IC50 in experiment [1] was over 10 µM; in experiment [3] (setting [4]), 0.0008 µM; in experiment [3] (setting [5]) it was 0.0704 µM.

For `C=CC(=O)N1CCC(Oc2cnc3[nH]cc(-c4cncc(C#N)c4)c3n2)CC1` [Example 225, 5-{2-[(1-acryloylpiperidin-4-yl)oxy]-5H-pyrrolo[2,3-b]pyrazin-7-yl}pyridine-3-carbonitrile], the IC50 was determined as 2.91 µM in experiment [2], 0.0014 µM in experiment [3] (setting [4]) and 0.12 µM in experiment [3] (setting [5]).

Regarding `C=CC(=O)N1CCC(Oc2cnc3[nH]cc(-c4ccc(F)nc4)c3n2)CC1` [Example 226, 1-(4-{[7-(6-fluoropyridin-3-yl)-5H-pyrrolo[2,3-b]pyrazin-2-yl]oxy}piperidin-1-yl)prop-2-en-1-one], the IC50 is 0.699 µM in experiment [2], 0.001 µM in experiment [3] (setting [4]) and 0.091 µM in experiment [3] (setting [5]).

`C=CC(=O)N1CCC(Nc2cnc3[nH]cc(C(=O)NCCCCCCCCC#N)c3n2)CC1` [Example 260, 2-[(1-acryloylpiperidin-4-yl)amino]-N-(8-cyanooctyl)-5H-pyrrolo[2,3-b]pyrazine-7-carboxamide]: in experiment [1], the IC50 is over 10 µM.

With `C=CC(=O)N1CCC(Nc2cnc3[nH]cc(C(=O)N[C@H]4CCC[C@H](CC#N)C4)c3n2)CC1` [Example 262, 2-[(1-acryloylpiperidin-4-yl)amino]-N-[(1S,3S)-3-(cyanomethyl)cyclohexyl]-5H-pyrrolo[2,3-b]pyrazine-7-carboxamide], the IC50 in experiment [1] is over 10 µM.

With `C=CC(=O)N1CC[C@@H](Nc2cnc3[nH]ccc3n2)C1` [Example 335, (R)-1-(3-((5H-Pyrrolo[2,3-b]pyrazin-2-yl)amino)pyrrolidin-1-yl)prop-2-en-1-one], the concentration for half-maximal inhibition (IC50) was over 10 µM in experiment [2] and 0.622 µM in experiment [3] (setting [4]).

For `C=CC(=O)N1CC[C@H](Nc2cnc3[nH]ccc3n2)C1` [Example 336, (S)-1-(3-((5H-Pyrrolo[2,3-b]pyrazin-2-yl)amino)pyrrolidin-1-yl)prop-2-en-1-one], the IC50 is over 10 µM in experiment [2], 0.0306 µM in experiment [3] (setting [4]) and 3.4 µM in experiment [3] (setting [5]).

As to `C=CC(=O)N1CCC(Oc2cnc3[nH]cc(C(=O)NC(C)(C)C)c3n2)CC1` [Example 338, 2-((1-Acryloylpiperidin-4-yl)oxy)-N-(tert-butyl)-5H-pyrrolo[2,3-b]pyrazine-7-carboxamide], the IC50 in experiment [1] is over 10 µM; in experiment [3] (setting [4]), 0.0004 µM; in experiment [3] (setting [5]), 0.115 µM.

Usually IC50 stands for the point on the concentration scale where inhibition reaches its midpoint.
